Patent publication US6521654B2, “Substituted imidazolidine derivatives, their preparation, their use and pharmaceutical preparations including them” (Aventis Pharma Deutschland GmbH, priority 1997, dated 2003)

Biological target: T1, interaction between VCAM-1 and VLA-4 (Homo sapiens, UniProt P05556+P13612)
T1 construct: supplied in their natural form as surface molecules on human U937 cells; host or cells: U937 cells carry endogenous VLA-4; The partner hVCAM-1(1-3)-IgG was made in house in transfected COS cells (ATCC CRL1651) and used as culture supernatant
T1 sequence (P13612 34-1032): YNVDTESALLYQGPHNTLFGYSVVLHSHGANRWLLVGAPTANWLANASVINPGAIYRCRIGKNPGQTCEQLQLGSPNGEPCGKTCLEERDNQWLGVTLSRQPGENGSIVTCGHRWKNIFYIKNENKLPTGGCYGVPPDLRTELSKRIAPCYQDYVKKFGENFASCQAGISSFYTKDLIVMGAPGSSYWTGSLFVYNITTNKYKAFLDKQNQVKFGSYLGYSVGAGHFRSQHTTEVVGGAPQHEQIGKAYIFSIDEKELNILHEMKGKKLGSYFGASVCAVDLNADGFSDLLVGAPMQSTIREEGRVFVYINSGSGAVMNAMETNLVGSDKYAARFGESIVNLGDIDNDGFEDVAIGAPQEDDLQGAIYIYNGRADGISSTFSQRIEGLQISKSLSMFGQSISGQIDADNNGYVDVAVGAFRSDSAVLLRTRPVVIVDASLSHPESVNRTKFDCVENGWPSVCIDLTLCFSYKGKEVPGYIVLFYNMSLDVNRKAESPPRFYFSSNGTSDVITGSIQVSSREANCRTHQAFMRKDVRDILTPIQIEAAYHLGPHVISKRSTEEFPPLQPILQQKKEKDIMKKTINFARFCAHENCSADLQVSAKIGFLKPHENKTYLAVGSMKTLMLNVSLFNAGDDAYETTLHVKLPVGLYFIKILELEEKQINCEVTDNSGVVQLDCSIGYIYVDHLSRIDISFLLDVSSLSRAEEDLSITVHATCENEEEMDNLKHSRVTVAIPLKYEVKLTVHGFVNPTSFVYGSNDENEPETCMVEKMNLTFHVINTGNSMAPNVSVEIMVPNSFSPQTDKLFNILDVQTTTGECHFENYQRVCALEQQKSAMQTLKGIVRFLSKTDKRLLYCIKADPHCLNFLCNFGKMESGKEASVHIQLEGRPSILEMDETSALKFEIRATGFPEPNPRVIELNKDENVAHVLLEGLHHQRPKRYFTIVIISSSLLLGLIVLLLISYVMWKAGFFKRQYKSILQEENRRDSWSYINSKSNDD
T1 sequence (P05556 21-798): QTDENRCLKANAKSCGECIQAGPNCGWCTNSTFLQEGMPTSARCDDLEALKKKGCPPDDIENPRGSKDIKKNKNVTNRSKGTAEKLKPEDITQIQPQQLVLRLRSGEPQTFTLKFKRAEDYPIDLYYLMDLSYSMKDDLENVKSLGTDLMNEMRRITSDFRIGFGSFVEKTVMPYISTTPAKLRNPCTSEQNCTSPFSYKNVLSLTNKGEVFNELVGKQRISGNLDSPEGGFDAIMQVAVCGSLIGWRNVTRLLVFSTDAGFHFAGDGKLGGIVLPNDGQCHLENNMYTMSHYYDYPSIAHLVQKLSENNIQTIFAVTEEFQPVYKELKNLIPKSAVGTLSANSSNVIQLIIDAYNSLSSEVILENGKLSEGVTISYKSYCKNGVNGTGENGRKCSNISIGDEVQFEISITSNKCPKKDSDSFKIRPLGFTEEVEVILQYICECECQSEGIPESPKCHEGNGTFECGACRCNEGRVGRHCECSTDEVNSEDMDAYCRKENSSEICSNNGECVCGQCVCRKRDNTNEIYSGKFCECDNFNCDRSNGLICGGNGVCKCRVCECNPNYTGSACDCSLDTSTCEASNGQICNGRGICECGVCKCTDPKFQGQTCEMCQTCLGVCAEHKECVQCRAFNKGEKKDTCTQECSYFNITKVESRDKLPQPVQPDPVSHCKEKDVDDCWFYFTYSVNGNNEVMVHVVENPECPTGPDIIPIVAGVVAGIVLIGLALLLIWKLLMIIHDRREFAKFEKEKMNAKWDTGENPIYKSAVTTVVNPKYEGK
Assay: U937/VCAM-1 cell adhesion test (adhesion of U937 cells to hVCAM-1(1-3)-IgG)
Assay type: cell-based
Details: concentration leading to 50% inhibition of adhesion of human U937 cells (ATCC CRL 1593) to hVCAM-1(1-3)-IgG
Source text: The test method used for the activity of the compounds of the formula I on the interaction between VCAM-1 and VLA-4 is the assay described below which is specific for this interaction. The cellular binding components, i.e., the VLA-4 integrins, are supplied in their natural form as surface molecules on human U937 cells (ATCC CRL 1593). which belong to the leucocytes group. The specific binding components used are genetically engineered recombinant soluble fusion proteins, consisting of the extracytoplasmatic domain of human VCAM-1 and the constant region of a human immunoglobulin of the subclass IgG1.
Assay for the Measurement of the Adhesion of U937 Cells (ATCC CRL 1593) to hVCAM-1(1-3)-IgG
1. Preparation of Human VCAM-1 (1-3)-IgG and Human CD4-IgG
A genetic construct for the expression of the extracellular domain of human VCAM-1, associated with the genetic sequence of the heavy chain of human immunoglobulin IgG1 (hinge, CH2 and CH3 regions), from Dr. Brian Seed, Massachusetts General Hospital. Boston, USA was employed (cf. Damle and Aruffo, Proc. Natl. Acad. Sci. USA 1991, 88, 6403-6407). The soluble fusion protein hVCAM-1(1-3)-IgG contained the three amino-terminal extracellular immunoglobulin-like domains of human VCAM-1 (Damle and Aruffo, Proc. Natl. Acad. Sci. USA 1991, 88, 6403-6407). CD4-IgG (Zettimeissl et al., DNA and Cell Biology 1990, 9, 347) served as a fusion protein for negative controls. The recombinant proteins were expressed as soluble proteins after DEAE/dextran-mediated DNA transfection in COS cells (ATCC CRL1651) according to standard procedures (Ausubel et al., Current Protocols in Molecular Biology, John Wiley & Sons, Inc., 1994).
2. Assay for the Measurement of the Adhesion of U937 Cells to hVCAM-1 (1-3)-IgG
2.1 96-well microtiter test plates (Nunc Maxisorb) were incubated at room temperature for 1 hour with 100 μl/well of a goat-anti-human IgG antibody solution (10 μg/ml in 50 mM tris, pH 9.5). After removal of the antibody solution, washing was carried out once with PBS.
2.2 150 μl/well of a blocking buffer (1% BSA in PBS) were incubated on the plates at room temperature for 0.5 hour. After removal of the blocking buffer, washing was carried out once with PBS.
2.3 100 μl per well of a cell culture supernatant of transfected COS cells were incubated on the plates at room temperature for 1.5 hours. The COS cells were transfected with a plasmid which codes for the three N-terminal immunoglobulin-like domains of VCAM-1, coupled to the Fc part of human IgG1 (hVCAM-1 (1-3)-IgG). The content of hVCAM-1 (1-3)-IgG was about 0.5-1 μg/ml. After removal of the culture supernatant, washing was carried out once with PBS.
2.4 The plates were incubated at room temperature for 20 minutes with 100 μl/well of Fc receptor blocking buffer (1 mg/ml of γ-globulin, 100 mM NaCl, 100 μM MgCl2, 100 μM MnCl2, 100 μM CaCl2, 1 mg/ml of BSA in 50 mM HEPES, pH 7.5). After removal of the Fc receptor blocking buffer, washing was carried out once with PBS.
2.5 20 μl of binding buffer (100 mM NaCl, 100 μM MgCl2, 100 μM MnCl2, 100 μM CaCl2, 1 mg/ml of BSA in 50 mM HEPES, pH 7.5) were initially introduced, and the substances to be tested were added in 10 μl of binding buffer and incubated for 20 minutes. The controls used were antibodies against VCAM-1 (BBT, No. BBA6) and against VLA-4 (immunotech, No. 0764).
2.6 U937 cells were incubated in Fc receptor blocking buffer for 20 minutes and then added by pipette in a concentration of 1×10^6/ml and in an amount of 100 μl per well ([…]).
2.7 The plates were slowly immersed at an angle of 45° in stop buffer (100 mM NaCl, 100 μM MgCl2, 100 μM MnCl2, 100 μM CaCl2 in 25 mM tris, pH 7.5) and shaken off. The process was repeated.
2.8 50 μl/well of a dye solution (16.7 μg/ml of Hoechst Dye 33258, 4% formaldehyde, 0.5% triton X-100 in PBS) were then incubated on the plates for 15 minutes. […]

IC50 [nM]	Compound
11	Cc1ccccc1NC(=O)Nc1ccc(CN2C(=O)N([C@@H](CC(C)C)C(=O)N[C@@H](CC(=O)O)c3ccc(-c4ccccc4)cc3)C(=O)C2(C)C)cc1 [Example 185]
2.9	Cc1ccccc1NC(=O)Nc1ccc(CN2C(=O)N([C@@H](CC(C)C)C(=O)N[C@@H](CC(=O)O)c3cccc4ccccc34)C(=O)C2(C)C)cc1 [Example 186]
25	Cc1ccccc1NC(=O)Nc1ccc(CN2C(=O)N([C@@H](CC(C)C)C(=O)N[C@@H](CC(=O)O)c3c(F)c(F)c(F)c(F)c3F)C(=O)C2(C)C)cc1 [Example 187]
1.6	COc1ccc([C@H](CC(=O)O)NC(=O)[C@H](CC(C)C)N2C(=O)N(Cc3ccc(NC(=O)Nc4ccccc4C)cc3)C(C)(C)C2=O)c(OC)c1 [Example 188]
8	COc1ccc(C(CC(=O)O)NC(=O)C(CC(C)C)N2C(=O)N(Cc3ccc(NC(=O)Nc4ccccc4C)cc3)C(C)(c3ccccc3)C2=O)cc1OC (stereo not shown) [Example 190]
122	Cc1ccccc1NC(=O)Nc1ccc(CN2C(=O)N(C(CC(C)C)C(=O)NC(CC(=O)O)c3ccc(C(C)(C)C)cc3)C(=O)C2(C)c2ccccc2)cc1 (stereo not shown) [Example 191]
50	Cc1ccccc1NC(=O)Nc1ccc(CN2C(=O)N(C(CC(C)C)C(=O)NC(CC(=O)O)c3ccc(F)cc3)C(=O)C2(C)c2ccccc2)cc1 (stereo not shown) [Example 192]
15	COc1ccc(C(CC(=O)O)NC(=O)C(CC(C)C)N2C(=O)N(Cc3ccc(NC(=O)Nc4ccccc4C)cc3)C(C)(c3ccccc3)C2=O)cc1 (stereo not shown) [Example 193]
450	Cc1ccccc1NC(=O)Nc1ccc(CN2C(=O)N(C(CC(C)C)C(=O)NC(CC(=O)O)c3ccc(CC(C)C)cc3)C(=O)C2(C)c2ccccc2)cc1 (stereo not shown) [Example 194]
25	COc1cccc(C(CC(=O)O)NC(=O)C(CC(C)C)N2C(=O)N(Cc3ccc(NC(=O)Nc4ccccc4C)cc3)C(C)(c3ccccc3)C2=O)c1OC (stereo not shown) [Example 201]
95	Cc1ccccc1NC(=O)Nc1ccc(CN2C(=O)N(C(CC(C)C)C(=O)NC(CC(=O)O)c3c(F)cccc3F)C(=O)C2(C)c2ccccc2)cc1 (stereo not shown) [Example 205]
17	Cc1ccccc1NC(=O)Nc1ccc(CN2C(=O)N(C(CC(C)C)C(=O)NC(CC(=O)O)c3ccccc3F)C(=O)C2(C)c2ccccc2)cc1 (stereo not shown) [Example 214]
50	Cc1ccccc1NC(=O)Nc1ccc(CN2C(=O)N(C(CC(C)C)C(=O)NC(CC(=O)O)c3ccc(F)cc3)C(=O)C2(C)c2ccccc2)cc1 (stereo not shown) [Example 216]
